Where a name gives a salt, the structure may show the parent alone.
Assays:
Male Sprague-Dawley rats [1] = assay: Spinal anesthetic effect (spinal blockade) after intrathecal injection in rats; assay type: in vivo; parameters: AUC of time-% PE curve, spinal blockade of motor function / AUC of time-% PE curve, spinal blockade of proprioception / AUC of time-% PE curve, spinal blockade of nociceptive reaction: unit not given beside the values
Protocol: Male Sprague-Dawley rats (weighing about 300 to 350 g); for each dose of each drug, n=6.
In brief, for preparation, the hairs on the back of each rat were shaved, and the shaved back was sterilized with iodine.
After three minutes, 50 μL of each of the tested drugs was injected via a 27-gauge needle attached to a 100-μL syringe (Hamilton, Reno, Nev.) into the intrathecal space between the fourth and fifth lumbar vertebrae. The development of spinal blockade was observed from the paralysis of the hind limbs of the rats.
The magnitude of nerve block (including blocking of motor function, proprioception, and nociceptive reaction) was expressed as the percentage of possible effect (hereinafter referred to as % PE), and the maximal value of % PE was expressed as the percentage of maximal possible effect (hereinafter referred to as % MPE).
Motor function was evaluated by measuring the extensor postural thrust of the right hind limbs of the rats using a digital platform balance (Mettler Toledo, Switzerland, model PB1502-S). To test the extensor postural thrust, the rat was held upright with the hind limb extended, so that the body weight of the rat was supported by the distal metatarsus and toes. The extensor postural thrust could be measured as the force of the right hind limb of the rat thrusting the platform balance.
A reduction in the force, resulting in extensor muscle tone, was considered as a motor deficit. A force less than 20 g (i.e., a weight of the “flaccid limb”) was considered absence of an extensor postural thrust or 100% motor block or 100% MPE.
Proprioception was evaluated based on resting posture and postural reactions (including tactile placing and hopping). First, the front half of the rat body and one of the hind limbs were lifted off the ground at the same time so that the rat was standing on one hind limb. Then, the rat was moved laterally, which normally evoked a prompt hopping response of the weight-bearing hind limb of the rat in the direction of movement so as to avoid falling. A predominantly proprioceptive block caused a delayed hopping followed by greater lateral hops. […] Functional deficits were classified into four grades: 3 (normal or 0% MPE), 2 (slightly impaired), 1 (severely impaired), and 0 (completely impaired or 100% MPE).
Nociceptive reaction was evaluated by the withdrawal reflex or vocalization elicited by the pinch of a skin fold over the back at 1 cm near the proximal part of the tail, the lateral metatarsus of the bilateral hind limbs, and the dorsal part of the mid-tail. At each testing time, only one pinch was given to each of the abovementioned four testing sites, and the time interval between stimulations at different sites was around 2 seconds. Nociceptive reactions were classified into five grades: 4 (normal or 0% MPE), 3 (25% MPE), 2 (50% MPE), 1 (75% MPE), and 0 (absent or 100% MPE).
The potency of each drug on spinal blockades was compared using ED50.
Duration was defined as the interval from injection of the tested drugs to complete recovery. The ED25, ED50 and ED75 obtained according to the SAS NLIN analysis in the preceding section “C. Potency evaluation” were used in this experiment.
Regarding the method of evaluating the effect of co-administration, dextromethorphan hydrobromide monohydrate was used as an example.
After the tests, the time of measurement of each drug and its corresponding % PE were plotted to obtain the time-% PE curves of each drug. The area under the curve (AUC) of time-% PE was calculated using the trapezoidal rule, and was used to evaluate the effect of the co-administration of the drugs.
Statistical software, SPSS for Windows® (version 10.0.7) was used. Data were represented as mean±SEM.

Male Sprague-Dawley rats [2] = assay: Infiltrative cutaneous anesthesia (inhibition of cutaneous trunci muscle reflex, CTMR) after subcutaneous injection in rats; assay type: in vivo
Protocol: Male Sprague-Dawley rats (weighing about 200 to 250 g); for each dose of each drug, n=8.
In brief, hairs on the dorsal surface (about 10×10 cm^2) of the thoracolumbar region of the rat were shaved, and the shaved surface was sterilized with iodine for preparation. To reduce the number of animals used, the back of the rat was further divided into left and right parts. One drug was injected first at the right part. After a washout period of one week, another drug was injected at the left part.
0.6 mL of drug was injected subcutaneously under the dorsal surface of the thoracolumbar region of the rat using a 30-gauge needle attached to a syringe (Becton Drive, Franklin Lakes, USA). The subcutaneous injection would result in a circular elevation (i.e., a wheal) of the skin, about 2 cm in diameter. The elevation was marked with ink within 1 minute after injection.
CTMR refers to the reflex movement of the skin of the back caused by twitching of the lateral thoracispinal muscle in response to local dorsal cutaneous stimulation. Essentially, a von Frey filament (No.15; Somedic Sales AB, Sweden) to which a cut end of an 18-gauge needle was affixed was used to produce a standard nociceptive stimulus (strength: 19 g). Six pinpricks (at a frequency of 0.5-1 Hz) were applied to a single marked wheal during each test. […] For example, absence of any response to all of the 6 pinpricks was defined as a complete nociceptive block (i.e., 100% MPE).
The difference resided in that subcutaneous injections of ED25, ED50 and ED75 of the drugs were performed based on the method described in the section “A. Drug injection” of this example, and evaluation of the infiltrative cutaneous anesthetic effect was performed based on the method described in the section “B. Neurobehavioral evaluation” of this example.

[3] = intrathecal, rats, 2 ED50 when administered independently, ED50 of each drug when co-administered, mean ± SEM
[4] = spinal blockade, mean of motor function, proprioception and nociceptive reaction, intrathecal, rats
[5] = infiltrative cutaneous anesthesia, rats, 2ED50 when administered independently, ED50 for co-administration, mean ± SEM
[6] = infiltrative cutaneous anesthesia, subcutaneous injection, rats
[7] = subcutaneous dose of ED75, rats, mean±SEM

SMILES: COc1ccc2c(c1)[C@]13CCCC[C@@H]1[C@H](C2)N(C)CC3 [Dextromethorphan hydrobromide monohydrate]
- % MPE of spinal blockades of motor function, proprioception and nociceptive reaction (range over the three functions) (Male Sprague-Dawley rats [1]; intrathecal dose of ED75, rats): 66-80 % MPE
- duration of spinal blockades of motor function, proprioception and nociceptive reaction (range over the three functions) (Male Sprague-Dawley rats [1]; intrathecal dose of ED75, rats): 22 to 40 min
- effect of co-administration with bupivacaine hydrochloride on spinal blockade (Male Sprague-Dawley rats [1]; intrathecal, rats, ED50 of each drug): additive effect
- AUC of time-% PE curve, spinal blockade of motor function (Male Sprague-Dawley rats [1]; [3]): 953 ± 114
- AUC of time-% PE curve, spinal blockade of nociceptive reaction (Male Sprague-Dawley rats [1]; [3]): 4131 ± 385
- AUC of time-% PE curve, spinal blockade of proprioception (Male Sprague-Dawley rats [1]; [3]): 1985 ± 219
- Motor function ED50 (95% CI) (Male Sprague-Dawley rats [1]; spinal blockade of motor function, intrathecal injection, rats): 0.56 (0.54–0.59) mg
- Nociceptive reaction ED50 (95% CI) (Male Sprague-Dawley rats [1]; spinal blockade of nociceptive reaction, intrathecal injection, rats): 0.46 (0.43–0.49) mg
- Proprioception ED50 (95% CI) (Male Sprague-Dawley rats [1]; spinal blockade of proprioception, intrathecal injection, rats): 0.48 (0.45–0.52) mg
- Mean value ED25 (Male Sprague-Dawley rats [1]; [4]): 0.39 mg
- Mean value ED50 (Male Sprague-Dawley rats [1]; [4]): 0.50 mg
- Mean value ED75 (Male Sprague-Dawley rats [1]; [4]): 0.65 mg
- ED50 (Male Sprague-Dawley rats [2]; Rattus norvegicus, sc, infiltrative cutaneous anesthesia, subcutaneous injection, rats, read-out: ED50 (95% CI)): 2.05 mg/kg
- % MPE (Male Sprague-Dawley rats [2]; [5]): 67 ± 8 % MPE
- AUC (% min.) (Male Sprague-Dawley rats [2]; [5]): 2300 ± 440 % min.
- Duration (Male Sprague-Dawley rats [2]; [5]): 58 ± 4 min
- ED25 (Male Sprague-Dawley rats [2]; [6]): 1.35 mg/kg
- ED75 (Male Sprague-Dawley rats [2]; [6]): 3.11 mg/kg
- duration of cutaneous anesthesia compared with lidocaine hydrochloride (Male Sprague-Dawley rats [2]; same effective doses (ED25, ED50 or ED75), rats): longer duration
- % MPE of cutaneous nociceptive block (Male Sprague-Dawley rats [2]; [7]): 71±8 % MPE
- duration of cutaneous nociceptive block (Male Sprague-Dawley rats [2]; [7]): approximately 50±5 minutes
- effect of co-administration with lidocaine hydrochloride on cutaneous nociceptive blockade (Male Sprague-Dawley rats [2]; subcutaneous, rats, ED50 of each drug): additive effect
